# Test results: patent publication US20230150974A1 (Foghorn Therapeutics Inc., priority 2020, published 2023)
# Columns and labels:
# [1] = molecular target: T1, HiBiT-BRM (Homo sapiens, UniProt P51531); experiment: HiBiT-BRM cell-based degradation assay (Nano-Glo HiBiT Lytic Detection); conditions: HeLa cells expressing HiBiT-BRM, 24 h; for DC50: read-out: BRM HiBit Degradation IC50
# T1 construct: expressed in transfected cells
# Method: (§1) Procedure: A stable HeLa cell line expressing HiBiT-BRM was generated. On day 0, 5000 cells were seeded in 40 μL of media into each well of 384-well cell culture plates. […] Subsequently plates were incubated for 24 h in a standard tissue culture incubator and equilibrated at room temperature for 15 minutes. Nano-Glo HiBiT Lytic Detection System (Promega N3050) reagent was freshly prepared and 20 ul was added to each well. Upon addition of this LgBit-containing reagent, the HiBiT and LgBiT proteins associate to form the luminescent NanoBiT luciferase. The plates were shaken for 10 minutes at room temperature and the bioluminescence read using an EnVision plate reader (PerkinElmer).
# (§2) The degradation % was calculated using the following formula: % degradation=100%−100%×(LumSample−LumLC)/(LumHC−LumLC). DMSO treated cells are employed as High Control (HC) and 2 μM of a known BRM/BRG1 degrader standard treated cells are employed as Low Control (LC).
# [2] = molecular target: T2, HiBit-BRG1 (Homo sapiens, UniProt P51532); experiment: HiBit-BRG1 cell-based degradation assay (Nano-Glo HiBiT Lytic Detection); conditions: HeLa cells expressing HiBit-BRG1 and LgBit, 24 h; for DC50: read-out: BRG1 HiBit Degradation IC50; for Dmax: read-out: BRG1 HiBit Degradation Maximum (%)
# T2 construct: expressed in transfected cells
# T2 sequence (P51532 whole entry): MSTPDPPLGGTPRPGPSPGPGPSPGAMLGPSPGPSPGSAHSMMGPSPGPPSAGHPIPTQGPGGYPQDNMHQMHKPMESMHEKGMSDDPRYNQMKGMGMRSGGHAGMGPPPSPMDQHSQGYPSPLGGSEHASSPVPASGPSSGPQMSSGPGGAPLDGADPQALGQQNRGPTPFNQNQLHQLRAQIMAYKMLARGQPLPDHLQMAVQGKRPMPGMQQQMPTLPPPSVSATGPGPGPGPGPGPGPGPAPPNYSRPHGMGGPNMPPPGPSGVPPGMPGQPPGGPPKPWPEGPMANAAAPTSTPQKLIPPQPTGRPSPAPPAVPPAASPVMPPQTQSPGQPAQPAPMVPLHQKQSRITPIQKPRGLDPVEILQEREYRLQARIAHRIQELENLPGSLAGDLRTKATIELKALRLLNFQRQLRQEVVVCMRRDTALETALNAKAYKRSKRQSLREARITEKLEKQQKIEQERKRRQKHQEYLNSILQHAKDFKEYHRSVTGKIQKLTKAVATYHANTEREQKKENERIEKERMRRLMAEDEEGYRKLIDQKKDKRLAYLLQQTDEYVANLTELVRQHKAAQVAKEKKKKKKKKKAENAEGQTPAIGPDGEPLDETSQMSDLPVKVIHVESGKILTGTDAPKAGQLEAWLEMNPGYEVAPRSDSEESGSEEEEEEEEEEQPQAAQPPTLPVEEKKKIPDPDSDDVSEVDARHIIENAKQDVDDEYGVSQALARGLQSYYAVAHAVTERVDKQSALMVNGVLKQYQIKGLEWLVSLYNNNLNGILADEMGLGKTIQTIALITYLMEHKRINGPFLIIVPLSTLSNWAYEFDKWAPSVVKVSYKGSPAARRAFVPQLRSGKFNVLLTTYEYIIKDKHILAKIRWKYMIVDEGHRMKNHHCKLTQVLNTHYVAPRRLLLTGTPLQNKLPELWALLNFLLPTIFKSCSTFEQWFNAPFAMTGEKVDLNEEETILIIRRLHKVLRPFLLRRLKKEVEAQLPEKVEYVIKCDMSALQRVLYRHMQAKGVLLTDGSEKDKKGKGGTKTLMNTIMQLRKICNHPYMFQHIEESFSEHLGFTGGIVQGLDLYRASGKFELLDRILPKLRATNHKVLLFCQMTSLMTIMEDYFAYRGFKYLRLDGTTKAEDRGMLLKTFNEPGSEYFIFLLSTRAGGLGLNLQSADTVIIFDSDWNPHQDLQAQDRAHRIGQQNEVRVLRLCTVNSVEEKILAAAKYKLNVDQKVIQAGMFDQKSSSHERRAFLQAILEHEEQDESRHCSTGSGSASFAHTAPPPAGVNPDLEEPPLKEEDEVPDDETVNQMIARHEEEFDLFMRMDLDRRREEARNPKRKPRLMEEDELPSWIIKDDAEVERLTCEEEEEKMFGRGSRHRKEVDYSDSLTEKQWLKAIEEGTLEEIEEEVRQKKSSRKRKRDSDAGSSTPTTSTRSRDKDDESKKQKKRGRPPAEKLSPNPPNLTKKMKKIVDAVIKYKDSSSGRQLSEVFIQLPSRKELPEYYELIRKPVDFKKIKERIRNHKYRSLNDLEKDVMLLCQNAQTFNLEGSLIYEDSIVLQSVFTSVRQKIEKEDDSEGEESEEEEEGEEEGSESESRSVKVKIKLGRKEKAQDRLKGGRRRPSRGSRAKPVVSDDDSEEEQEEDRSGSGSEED
# Method: as §1
# For measurement of BRG1 degradation, a stable HeLa cell line expressing HiBit-BRG1 and LgBit was generated. The same protocol as above was then followed.
# as §2
# T1 sequence (P51531 whole entry): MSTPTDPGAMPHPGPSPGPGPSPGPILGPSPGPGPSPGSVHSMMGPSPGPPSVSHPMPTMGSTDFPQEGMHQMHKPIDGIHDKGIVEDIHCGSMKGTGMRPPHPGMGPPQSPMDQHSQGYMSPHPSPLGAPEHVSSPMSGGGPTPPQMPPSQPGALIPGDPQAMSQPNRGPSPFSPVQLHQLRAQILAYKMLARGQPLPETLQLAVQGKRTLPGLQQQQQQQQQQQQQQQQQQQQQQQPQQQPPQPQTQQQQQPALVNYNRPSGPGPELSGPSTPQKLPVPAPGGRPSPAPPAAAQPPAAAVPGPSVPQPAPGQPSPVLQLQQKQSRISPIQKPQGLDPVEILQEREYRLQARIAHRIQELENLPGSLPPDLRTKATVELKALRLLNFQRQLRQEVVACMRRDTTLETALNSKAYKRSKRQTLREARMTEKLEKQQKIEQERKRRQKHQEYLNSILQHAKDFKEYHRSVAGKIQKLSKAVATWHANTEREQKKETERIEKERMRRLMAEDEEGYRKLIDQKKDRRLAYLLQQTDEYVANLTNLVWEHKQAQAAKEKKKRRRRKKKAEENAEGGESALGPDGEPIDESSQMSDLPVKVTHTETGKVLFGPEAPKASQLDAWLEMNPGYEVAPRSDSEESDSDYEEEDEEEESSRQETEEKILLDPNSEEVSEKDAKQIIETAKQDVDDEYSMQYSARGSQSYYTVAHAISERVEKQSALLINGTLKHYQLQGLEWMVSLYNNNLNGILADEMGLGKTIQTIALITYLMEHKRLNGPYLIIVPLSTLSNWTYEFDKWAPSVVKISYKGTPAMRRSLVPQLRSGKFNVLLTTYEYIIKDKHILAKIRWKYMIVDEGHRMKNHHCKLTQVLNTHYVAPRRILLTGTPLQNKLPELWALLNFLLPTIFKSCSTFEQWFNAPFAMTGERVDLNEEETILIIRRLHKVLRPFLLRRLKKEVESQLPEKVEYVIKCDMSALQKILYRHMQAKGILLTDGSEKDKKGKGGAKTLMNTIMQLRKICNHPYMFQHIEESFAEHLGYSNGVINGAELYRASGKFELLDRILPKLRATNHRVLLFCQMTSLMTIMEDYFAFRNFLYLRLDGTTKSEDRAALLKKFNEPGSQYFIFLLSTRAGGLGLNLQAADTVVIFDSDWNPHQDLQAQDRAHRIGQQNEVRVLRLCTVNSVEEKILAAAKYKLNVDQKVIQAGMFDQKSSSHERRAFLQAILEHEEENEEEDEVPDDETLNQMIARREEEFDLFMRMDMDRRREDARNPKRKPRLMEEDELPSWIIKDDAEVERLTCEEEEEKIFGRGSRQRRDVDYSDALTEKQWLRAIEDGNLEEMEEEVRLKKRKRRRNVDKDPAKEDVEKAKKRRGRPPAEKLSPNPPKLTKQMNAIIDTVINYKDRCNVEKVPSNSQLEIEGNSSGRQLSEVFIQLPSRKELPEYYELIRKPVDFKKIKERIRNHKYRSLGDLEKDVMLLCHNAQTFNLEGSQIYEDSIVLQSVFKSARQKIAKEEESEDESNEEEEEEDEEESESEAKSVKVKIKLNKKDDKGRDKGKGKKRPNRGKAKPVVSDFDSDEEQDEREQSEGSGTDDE
Compound,DC50 [1],DC50 [2],Dmax [2],BRM HiBit Degradation Maximum (%) [1]
"Cc1ncsc1-c1ccc(CNC(=O)[C@@H]2C[C@@H](O)CN2C(=O)[C@@H](NC(=O)CCCCC(=O)NCc2ccc(CCOc3cc(-c4ccccc4O)nnc3N)cc2)C(C)(C)C)cc1 [Compound 27, N′-[[4-(2-[[3-amino-6-(2-hydroxyphenyl)pyridazin-4-yl]oxy]ethyl)phenyl]methyl]-N-[(2S)-1-[(2S,4R)-4-hydroxy-2-([[4-(4-methyl-1,3-thiazol-5-yl)phenyl]methyl]carbamoyl)pyrrolidin-1-yl]-3,3-dimethyl-1-oxobutan-2-yl]hexanediamide]",> 1000 nM,> 1000 nM,< 50%,A (“A” indicates maximum degradation ≥75%)
"Cc1ncsc1-c1ccc(CNC(=O)[C@@H]2C[C@@H](O)CN2C(=O)[C@@H](NC(=O)CCC(=O)NCc2ccc(CCOc3cc(-c4ccccc4O)nnc3N)cc2)C(C)(C)C)cc1 [Compound 29, N′-[[4-(2-[[3-amino-6-(2-hydroxyphenyl)pyridazin-4-yl]oxy]ethyl)phenyl]methyl]-N-[(2S)-1-[(2S,4R)-4-hydroxy-2-([[4-(4-methyl-1,3-thiazol-5-yl)phenyl]methyl]carbamoyl)pyrrolidin-1-yl]-3,3-dimethyl-1-oxobutan-2-yl]succinamide]",> 1000 nM,> 1000 nM,< 50%,B (“B” indicates maximum degradation ≥50%)
"Cc1ncsc1-c1ccc(CNC(=O)[C@@H]2C[C@@H](O)CN2C(=O)[C@@H](NC(=O)CCCCCCCCCCCCCCCC(=O)NCc2ccc(CCOc3cc(-c4ccccc4O)nnc3N)cc2)C(C)(C)C)cc1 [Compound 32, N1-(4-(2-((3-amino-6-(2-hydroxyphenyl)pyridazin-4-yl)oxy)ethyl)benzyl)-N17-((S)-1-((2S,4R)-4-hydroxy-2-((4-(4-methylthiazol-5-yl)benzyl)carbamoyl)pyrrolidin-1-yl)-3,3-dimethyl-1-oxobutan-2-yl)heptadecanediamide]",> 10 nM,> 1000 nM,< 50%,A (“A” indicates maximum degradation ≥75%)
Cc1ncsc1-c1ccc(CNC(=O)[C@@H]2C[C@@H](O)CN2C(=O)[C@@H](NC(=O)CCCC(=O)NCc2ccc(CCOc3cc(-c4ccccc4O)nnc3N)cc2)C(C)(C)C)cc1 [Compound 34],> 1000 nM,> 1000 nM,< 50%,B (“B” indicates maximum degradation ≥50%)
"Cc1ncsc1-c1ccc(CNC(=O)[C@@H]2C[C@@H](O)CN2C(=O)[C@@H](NC(=O)COCCOCCOCC(=O)NCc2ccc(CCOc3cc(-c4ccccc4O)nnc3N)cc2)C(C)(C)C)cc1 [Compound 38, (2S,4R)-1-[(2S)-2-[2-(2-[2-[([[4-(2-[[3-amino-6-(2-hydroxyphenyl)pyridazin-4-yl]oxy]ethyl)phenyl]methyl]carbamoyl)methoxy]ethoxy]ethoxy)acetamido]-3,3-dimethylbutanoyl]-4-hydroxy-N-[[4-(4-methyl-1,3-thiazol-5-yl)phenyl]methyl]pyrrolidine-2-carboxamide]",> 1000 nM,> 1000 nM,< 50%,B (“B” indicates maximum degradation ≥50%)
Cc1ncsc1-c1ccc(CNC(=O)[C@@H]2C[C@@H](O)CN2C(=O)[C@@H](NC(=O)COCCOCCOCCOCC(=O)NCc2ccc(CCOc3cc(-c4ccccc4O)nnc3N)cc2)C(C)(C)C)cc1 [Compound 39],> 1000 nM,> 1000 nM,< 50%,C (“C” indicates maximum degradation <50%)
"Nc1nnc(-c2ccccc2O)cc1OCCc1ccc(C(=O)NCCCCCCCCNC(=O)COc2cccc3c2C(=O)N(C2CCC(=O)NC2=O)C3=O)cc1 (stereo not shown) [Compound 41, N-(8-[[4-(2-[[3-amino-6-(2-hydroxyphenyl)pyridazin-4-yl]oxy]ethyl)phenyl]formamido]octyl)-2-[[2-(2,6-dioxopiperidin-3-yl)-1,3-dioxoisoindol-4-yl]oxy]acetamide]",> 1000 nM,> 1000 nM,< 50%,C (“C” indicates maximum degradation <50%)
"Nc1nnc(-c2ccccc2O)cc1OCCc1ccc(C(=O)NCCCCNc2ccc3c(c2)C(=O)N(C2CCC(=O)NC2=O)C3=O)cc1 (stereo not shown) [Compound 42, 4-(2-[[3-amino-6-(2-hydroxyphenyl)pyridazin-4-yl]oxy]ethyl)-N-(4-[[2-(2,6-dioxopiperidin-3-yl)-1,3-dioxoisoindol-5-yl]amino]butyl)benzamide]",> 1000 nM,> 1000 nM,< 50%,C (“C” indicates maximum degradation <50%)

# Further lines, with some results ahead:
DC50 [1],DC50 [2],Dmax [2],Compound,BRM HiBit Degradation Maximum (%) [1]
> 100 nM,> 1000 nM,< 50%,"Cc1ncsc1-c1ccc(CNC(=O)[C@@H]2C[C@@H](O)CN2C(=O)[C@@H](NC(=O)CCCCCCCCCC(=O)NCc2ccc(CCOc3cc(-c4ccccc4O)nnc3N)cc2)C(C)(C)C)cc1 [Compound 28, N′-[[4-(2-[[3-amino-6-(2-hydroxyphenyl)pyridazin-4-yl]oxy]ethyl)phenyl]methyl]-N-[(2S)-1-[(2S,4R)-4-hydroxy-2-([[4-(4-methyl-1,3-thiazol-5-yl)phenyl]methyl]carbamoyl)pyrrolidin-1-yl]-3,3-dimethyl-1-oxobutan-2-yl]undecanediamide]",A (“A” indicates maximum degradation ≥75%)
> 100 nM,> 1000 nM,< 50%,Cc1ncsc1-c1ccc(CNC(=O)[C@@H]2C[C@@H](O)CN2C(=O)[C@@H](NC(=O)CCCCCCC(=O)NCc2ccc(CCOc3cc(-c4ccccc4O)nnc3N)cc2)C(C)(C)C)cc1 [Compound 30],A (“A” indicates maximum degradation ≥75%)
> 10 nM,> 1000 nM,< 50%,"Cc1ncsc1-c1ccc(CNC(=O)[C@@H]2C[C@@H](O)CN2C(=O)[C@@H](NC(=O)CCCCCCCCCCCC(=O)NCc2ccc(CCOc3cc(-c4ccccc4O)nnc3N)cc2)C(C)(C)C)cc1 [Compound 31, N1-(4-(2-((3-amino-6-(2-hydroxyphenyl)pyridazin-4-yl)oxy)ethyl)benzyl)-N13-((S)-1-((2S,4R)-4-hydroxy-2-((4-(4-methylthiazol-5-yl)benzyl)carbamoyl)pyrrolidin-1-yl)-3,3-dimethyl-1-oxobutan-2-yl)tridecanediamide]",B (“B” indicates maximum degradation ≥50%)
> 100 nM,> 100 nM,> 50%,Cc1ncsc1-c1ccc(CNC(=O)[C@@H]2C[C@@H](O)CN2C(=O)[C@@H](NC(=O)CCCCCCCC(=O)NCc2ccc(CCOc3cc(-c4ccccc4O)nnc3N)cc2)C(C)(C)C)cc1 [Compound 33],A (“A” indicates maximum degradation ≥75%)
> 10 nM,> 1000 nM,< 50%,"Cc1ncsc1-c1ccc(CNC(=O)[C@@H]2C[C@@H](O)CN2C(=O)[C@@H](NC(=O)CCCCCCCCCCCCCC(=O)NCc2ccc(CCOc3cc(-c4ccccc4O)nnc3N)cc2)C(C)(C)C)cc1 [Compound 35, N1-(4-(2-((3-amino-6-(2-hydroxyphenyl)pyridazin-4-yl)oxy)ethyl)benzyl)-N15-((S)-1-((2S,4R)-4-hydroxy-2-((4-(4-methylthiazol-5-yl)benzyl)carbamoyl)pyrrolidin-1-yl)-3,3-dimethyl-1-oxobutan-2-yl)pentadecanediamide]",A (“A” indicates maximum degradation ≥75%)
> 10 nM,> 1000 nM,< 50%,Cc1ncsc1-c1ccc(CNC(=O)[C@@H]2C[C@@H](O)CN2C(=O)[C@@H](NC(=O)CCCCCCCCCCCCC(=O)NCc2ccc(CCOc3cc(-c4ccccc4O)nnc3N)cc2)C(C)(C)C)cc1 [Compound 36],B (“B” indicates maximum degradation ≥50%)
> 100 nM,> 1000 nM,< 50%,Cc1ncsc1-c1ccc(CNC(=O)[C@@H]2C[C@@H](O)CN2C(=O)[C@@H](NC(=O)CCCCCCCCCCC(=O)NCc2ccc(CCOc3cc(-c4ccccc4O)nnc3N)cc2)C(C)(C)C)cc1 [Compound 37],B (“B” indicates maximum degradation ≥50%)
> 100 nM,> 1000 nM,< 50%,"Cc1ncsc1-c1ccc(CNC(=O)[C@@H]2C[C@@H](O)CN2C(=O)[C@@H](NC(=O)CCCCCCCCCCCCCCC(=O)NCc2ccc(CCOc3cc(-c4ccccc4O)nnc3N)cc2)C(C)(C)C)cc1 [Compound 40, N1-(4-(2-((3-amino-6-(2-hydroxyphenyl)pyridazin-4-yl)oxy)ethyl)benzyl)-N16-((S)-1-((2S,4R)-4-hydroxy-2-((4-(4-methylthiazol-5-yl)benzyl)carbamoyl)pyrrolidin-1-yl)-3,3-dimethyl-1-oxobutan-2-yl)hexadecanediamide]",A (“A” indicates maximum degradation ≥75%)
